Values quoted from earlier work as cited in patent US12419869B2, “Methods of treating multiple sclerosis” (Vanda Pharmaceuticals Inc., priority 2021, dated 2025).

System: adult subjects with relapsing MS
Details: comparison values; cited from earlier work

Row | SMILES | ECG HR effect: time of nadir post-dose (other S1P modulators) [h]
1 | CCCCCCCCc1ccc(CCC(N)(CO)CO)cc1 [Fingolimod] | ~6
2 | CCc1cc(/C(C)=N/OCc2ccc(C3CCCCC3)c(C(F)(F)F)c2)ccc1CN1CC(C(=O)O)C1 [Siponimod] | 3 to 4
